Measured values taken from ChEMBL document CHEMBL4433217, “Novel Phenyldiazenyl Fibrate Analogues as PPAR α/γ/δ Pan-Agonists for the Amelioration of Metabolic Syndrome” (ACS Med Chem Lett, 2019).
Activity calls are given as the source filed them. No cut-off for these calls is given here.

Legend:
[1] = biological target: T1, Peroxisome proliferator-activated receptor alpha (Homo sapiens) (UniProt Q07869); test: Potency index, ratio of EC50 for GL479 to EC50 for test compound for transactivation of GAL4-tagged human PPARalpha LBD expressed in human HepG2 cells incubated for 20 to 22 hrs by luciferase reporter gene assay; assay type: cell-based
T1 sequence (whole entry): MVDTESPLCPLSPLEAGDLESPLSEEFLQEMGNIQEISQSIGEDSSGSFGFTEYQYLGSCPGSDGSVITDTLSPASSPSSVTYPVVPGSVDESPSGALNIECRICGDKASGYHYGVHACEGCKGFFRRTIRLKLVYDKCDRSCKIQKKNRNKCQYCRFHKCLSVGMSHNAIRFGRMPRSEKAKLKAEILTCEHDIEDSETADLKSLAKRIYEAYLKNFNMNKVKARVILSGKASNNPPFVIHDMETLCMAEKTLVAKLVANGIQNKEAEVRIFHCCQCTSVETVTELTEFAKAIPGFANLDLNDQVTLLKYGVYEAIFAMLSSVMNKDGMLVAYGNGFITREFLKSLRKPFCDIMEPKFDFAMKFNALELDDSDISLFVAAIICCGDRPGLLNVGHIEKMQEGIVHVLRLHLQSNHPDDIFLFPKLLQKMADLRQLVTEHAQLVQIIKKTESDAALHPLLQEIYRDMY

[2] = biological target: T1, Peroxisome proliferator-activated receptor alpha (Homo sapiens); test: Transactivation of GAL4-tagged human PPARalpha LBD expressed in human HepG2 cells at 100 nM to 100 uM incubated for 20 to 22 hrs by luciferase reporter gene assay relative to clofibric acid; assay type: cell-based
[3] = biological target: T2, Peroxisome proliferator-activated receptor delta (Homo sapiens, UniProt Q03181); test: Transactivation of GAL4-tagged human PPARdelta LBD expressed in human HepG2 cells at 100 nM to 100 uM incubated for 20 to 22 hrs by luciferase reporter gene assay; assay type: cell-based
T2 sequence (Q03181 whole entry): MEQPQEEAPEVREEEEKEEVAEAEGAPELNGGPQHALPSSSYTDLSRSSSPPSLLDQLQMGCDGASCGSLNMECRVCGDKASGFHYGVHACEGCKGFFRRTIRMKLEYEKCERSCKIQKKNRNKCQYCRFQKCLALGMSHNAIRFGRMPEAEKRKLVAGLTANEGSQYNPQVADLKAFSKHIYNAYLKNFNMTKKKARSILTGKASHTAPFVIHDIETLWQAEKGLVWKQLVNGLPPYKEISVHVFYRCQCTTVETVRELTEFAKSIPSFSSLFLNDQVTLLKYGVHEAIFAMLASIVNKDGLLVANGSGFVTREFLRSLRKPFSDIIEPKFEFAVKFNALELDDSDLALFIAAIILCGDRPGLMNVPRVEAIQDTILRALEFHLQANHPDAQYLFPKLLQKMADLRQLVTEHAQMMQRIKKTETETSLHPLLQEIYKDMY

[4] = biological target: T3, Peroxisome proliferator-activated receptor delta (Homo sapiens) (UniProt Q03181); test: Transactivation of GAL4-tagged human PPARdelta LBD expressed in human HepG2 cells at 100 nM to 100 uM incubated for 20 to 22 hrs by luciferase reporter gene assay relative to L165,041; assay type: cell-based
T3 sequence (whole entry): T2 sequence (Q03181 whole entry)

[5] = biological target: T4, Peroxisome proliferator-activated receptor alpha (Homo sapiens, UniProt Q07869); test: Transactivation of GAL4-tagged human PPARalpha LBD expressed in human HepG2 cells at 100 nM to 100 uM incubated for 20 to 22 hrs by luciferase reporter gene assay; assay type: cell-based
T4 sequence (Q07869 whole entry): T1 sequence (whole entry)

[6] = biological target: T5, Peroxisome proliferator-activated receptor gamma (Homo sapiens) (UniProt P37231); test: Transactivation of GAL4-tagged human PPARgamma LBD expressed in human HepG2 cells at 100 nM to 100 uM incubated for 20 to 22 hrs by luciferase reporter gene assay relative to rosiglitazone; assay type: cell-based
T5 sequence (whole entry): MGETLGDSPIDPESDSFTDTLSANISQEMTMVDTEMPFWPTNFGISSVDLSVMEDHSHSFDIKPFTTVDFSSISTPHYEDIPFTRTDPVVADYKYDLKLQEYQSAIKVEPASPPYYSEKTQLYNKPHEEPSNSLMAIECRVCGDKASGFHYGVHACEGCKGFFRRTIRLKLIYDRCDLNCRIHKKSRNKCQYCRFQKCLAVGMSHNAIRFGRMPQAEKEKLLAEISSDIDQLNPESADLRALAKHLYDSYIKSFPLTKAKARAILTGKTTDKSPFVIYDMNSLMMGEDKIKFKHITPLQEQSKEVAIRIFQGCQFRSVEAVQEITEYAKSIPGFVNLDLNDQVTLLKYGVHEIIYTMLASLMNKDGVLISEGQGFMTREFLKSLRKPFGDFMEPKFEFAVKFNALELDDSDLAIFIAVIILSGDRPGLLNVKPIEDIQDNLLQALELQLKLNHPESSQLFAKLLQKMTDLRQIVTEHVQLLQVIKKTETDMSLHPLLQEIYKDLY

Cortex [7] = test: Ex vivo antiinflammatory activity in Sprague-Dawley rat cortex assessed as inhibition of LPS-induced PGE2 production at 1 uM incubated for 4 hrs followed by LPS addition by radioimmunoassay; assay type: functional, tissue-based
[8] = biological target: T3, Peroxisome proliferator-activated receptor delta (Homo sapiens); test: Agonist activity at PPARdelta in human HepG2 cells assessed as increase in PDK4 RNA expression at 2 uM incubated for 48 hrs by qRT-PCR analysis relative to control; assay type: cell-based
Liver [9] = test: Ex vivo antiinflammatory activity in Sprague-Dawley rat liver assessed as inhibition of LPS-induced PGE2 production at 1 uM incubated for 4 hrs followed by LPS addition by radioimmunoassay; assay type: functional, tissue-based
Liver [10] = test: Ex vivo antiinflammatory activity in Sprague-Dawley rat liver assessed as inhibition of LPS-induced PGE2 production at 0.1 to 10 uM incubated for 4 hrs followed by LPS addition by radioimmunoassay; assay type: functional, tissue-based
[11] = biological target: T1, Peroxisome proliferator-activated receptor alpha (Homo sapiens); test: Agonist activity at PPARalpha in human HepG2 cells assessed as increase in CPT1A RNA expression at 100 uM incubated for 48 hrs by qRT-PCR analysis relative to control; assay type: cell-based
[12] = biological target: T3, Peroxisome proliferator-activated receptor delta (Homo sapiens); test: Agonist activity at PPARdelta in human HepG2 cells assessed as increase in PDK4 RNA expression at 100 uM incubated for 48 hrs by qRT-PCR analysis relative to control; assay type: cell-based
Cortex [13] = test: Ex vivo antiinflammatory activity in Sprague-Dawley rat cortex assessed as inhibition of LPS-induced PGE2 production at 0.1 to 10 uM incubated for 4 hrs followed by LPS addition by radioimmunoassay; assay type: functional, tissue-based
[14] = biological target: T5, Peroxisome proliferator-activated receptor gamma (Homo sapiens); test: Agonist activity at PPARgamma in human HepG2 cells assessed as increase in GLUT1 RNA expression at 100 uM incubated for 48 hrs by qRT-PCR analysis relative to control; assay type: cell-based
[15] = biological target: T6, Peroxisome proliferator-activated receptor gamma (Homo sapiens, UniProt P37231); test: Transactivation of GAL4-tagged human PPARgamma LBD expressed in human HepG2 cells at 100 nM to 100 uM incubated for 20 to 22 hrs by luciferase reporter gene assay; assay type: cell-based
T6 sequence (P37231 whole entry): T5 sequence (whole entry)

## CC(C)(Oc1ccc(CCOc2ccc(/N=N/c3ccc(Br)cc3)cc2)cc1)C(=O)O
[1]
  Ratio EC50: 3
[2]
  Emax: 71%
[3]
  EC50: 3.9 µM
[4]
  Emax: 29%
[5]
  EC50: 0.81 µM
[6]
  Emax: 12%

## CCCc1c(OCCCOc2ccc(OCC(=O)O)cc2)ccc(C(C)=O)c1O
Cortex [7]
  Activity: inactive
[3]
  EC50: 0.21 µM
[8]
  Activity: Active
Liver [9]
  Activity: inactive

## CC(C)(Oc1ccc(OCCc2ccc(/N=N/c3ccc(C(F)(F)F)cc3)cc2)cc1)C(=O)O
[2]
  Emax: 37%
[4]
  Emax: 12%
[5]
  EC50: 2.2 µM
[6]
  Emax: 9%

## CC(C)(Oc1ccc(CCOc2ccc(/N=N/c3ccc(Cl)cc3)cc2)cc1)C(=O)O
[1]
  Ratio EC50: 5
[2]
  Emax: 60%
[3]
  EC50: 3.1 µM
[4]
  Emax: 23%
[5]
  EC50: 0.38 µM
[6]
  Emax: 12%

## CC(C)(Oc1ccc(OCCc2ccc(/N=N/c3ccc(C#N)cc3)cc2)cc1)C(=O)O
[2]
  Emax: 61%
[3]
  EC50: 2.8 µM
[4]
  Emax: 50%
[5]
  EC50: 1.4 µM
[6]
  Emax: 12%

## CC(C)(Oc1ccc(OCCc2ccc(/N=N/c3ccc(Cl)cc3)cc2)cc1)C(=O)O
[2]
  Emax: 52%
[3]
  EC50: 1.2 µM
[4]
  Emax: 41%
[5]
  EC50: 0.51 µM
[6]
  Emax: 10%

## Cc1cccc(Nc2cc(Cl)nc(SCC(=O)O)n2)c1C
Cortex [7]
  Activity: Active
Liver [9]
  Activity: Active

## CC(C)(Oc1ccc(OCCc2ccc(/N=N/c3ccc([N+](=O)[O-])cc3)cc2)cc1)C(=O)O
[2]
  Emax: 19%
[3]
  EC50: 2.3 µM
[4]
  Emax: 28%
[6]
  Emax: 10%

## CC(C)(Oc1ccc(CCOc2ccc(/N=N/c3ccc(C#N)cc3)cc2)cc1)C(=O)O
[2]
  Emax: 25%
[3]
  EC50: 6.5 µM
[4]
  Emax: 20%
[5]
  EC50: 2.6 µM
[6]
  Emax: 12%

## CC(C)(Oc1ccc(CCOc2ccc(/N=N/c3ccccc3)cc2)cc1)C(=O)O
[2]
  Emax: 56%
[3]
  EC50: 6.4 µM
[4]
  Emax: 39%
[5]
  EC50: 2.1 µM
[6]
  Emax: 13%

## CCc1ccc(CCOc2ccc(CC3SC(=O)NC3=O)cc2)nc1 (stereo not drawn)
Cortex [7]
  Activity: Active
Liver [9]
  Activity: Active

## CC(C)(Oc1ccc(OCCc2ccc(/N=N/c3ccc(Br)cc3)cc2)cc1)C(=O)O
[2]
  Emax: 35%
[3]
  EC50: 1.1 µM
[4]
  Emax: 29%
[5]
  EC50: 1.9 µM
[6]
  Emax: 8%

## CC(C)(Oc1ccc(CCOc2ccc(/N=N/c3ccc([N+](=O)[O-])cc3)cc2)cc1)C(=O)O
[2]
  Emax: 11%
[3]
  EC50: 4.1 µM
[4]
  Emax: 21%
[6]
  Emax: 14%

## CC(C)(Oc1ccc(CCOc2ccc(/N=N/c3ccc(C(F)(F)F)cc3)cc2)cc1)C(=O)O
[2]
  Emax: 35%
[3]
  EC50: 1.8 µM
[4]
  Emax: 24%
[5]
  EC50: 2.3 µM
[6]
  Emax: 8%

## CC(C)(Oc1ccc(OCCc2ccc(/N=N/c3ccccc3)cc2)cc1)C(=O)O
[2]
  Emax: 69%
Liver [10]
  Activity: Active
[3]
  EC50: 2.8 µM
[11]
  Activity: Active
[4]
  Emax: 35%
[12]
  Activity: Active
Cortex [13]
  Activity: Active
[14]
  Activity: Active
[5]
  EC50: 0.25 µM
[15]
  EC50: 6 µM
[6]
  Emax: 24%

## COc1ccc(/N=N/c2ccc(OCCc3ccc(OC(C)(C)C(=O)O)cc3)cc2)cc1
[2]
  Emax: 32%
[3]
  EC50: 1.4 µM
[4]
  Emax: 23%
[5]
  EC50: 2.4 µM
[6]
  Emax: 10%
